In US9725459B2, “3-oxo-tetrahydro-furo[3,2-B]pyrrol-4(5H)-yl) derivatives I” (GRÜNENTHAL GMBH, priority 2014, dated 2017):

Key:
Type in all cases: biochemical
[1] = molecular target: human cathepsin S (CatS) (Homo sapiens (Human), UniProt P25774); assay: CatS functional enzyme assay; conditions: for Selectivity Ki(hCatS)/Ki(hCatK): ratio Ki(hCatS)/Ki(hCatK); for Ki: recombinant human CatS, substrate Z-VVR-AMC 5 μM, pH 6.5, Ki by Cheng Prusoff equation, read-out: hCatS, Ki
In short: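 Recombinant human enzymes were incubated 10 min at RT with AMC substrate: CatS 0.0007 mU/well with Z-VVR-AMC 5 µM; CatK 0.00175 mU/well with Z-FR-AMC 40 µM; CatL 0.000874 mU/well with Z-VVR-AMC 40 µM. Fluorescence gave IC50, converted to Ki by Cheng-Prusoff.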

[2] = molecular target: human cathepsin K (CatK) (Homo sapiens (Human), UniProt P43235); assay: CatK functional enzyme assay; conditions: recombinant human CatK, substrate Z-FR-AMC 40 μM, pH 5.5; Ki by Cheng Prusoff equation; read-out: hCatK, Ki
In short: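 Recombinant human enzymes in 50 mM NaOAc, 10 mM EDTA, 1 mM DTT, 0.01% Triton X-100, pH 5.5, 10 min at RT. CatK: 0.00175 mU/well with 40 μM Z-FR-AMC; CatL: 0.000874 mU/well with 40 μM Z-VVR-AMC. AMC fluorescence read; IC50 converted to Ki via Cheng–Prusoff.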

[3] = molecular target: human cathepsin L (CatL) (Homo sapiens (Human), UniProt P07711); assay: CatL functional enzyme assay; conditions: read-out: hCatL, inhibition [%] at 31.6 μM
Sequence of human cathepsin L (CatL) (P07711 114-333): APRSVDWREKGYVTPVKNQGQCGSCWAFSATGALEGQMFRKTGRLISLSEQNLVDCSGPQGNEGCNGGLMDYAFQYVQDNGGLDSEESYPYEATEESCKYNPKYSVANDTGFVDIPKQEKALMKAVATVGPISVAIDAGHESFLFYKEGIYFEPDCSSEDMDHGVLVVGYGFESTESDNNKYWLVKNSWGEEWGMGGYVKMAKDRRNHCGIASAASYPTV

Sequence of human cathepsin S (CatS) (P25774 115-331): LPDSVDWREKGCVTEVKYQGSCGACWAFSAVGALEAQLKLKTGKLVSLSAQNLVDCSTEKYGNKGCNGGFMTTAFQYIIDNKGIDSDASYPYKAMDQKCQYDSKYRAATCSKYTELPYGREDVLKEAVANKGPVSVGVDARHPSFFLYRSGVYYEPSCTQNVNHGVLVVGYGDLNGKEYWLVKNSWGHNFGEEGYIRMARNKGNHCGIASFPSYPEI
Sequence of human cathepsin K (CatK) (P43235 115-329): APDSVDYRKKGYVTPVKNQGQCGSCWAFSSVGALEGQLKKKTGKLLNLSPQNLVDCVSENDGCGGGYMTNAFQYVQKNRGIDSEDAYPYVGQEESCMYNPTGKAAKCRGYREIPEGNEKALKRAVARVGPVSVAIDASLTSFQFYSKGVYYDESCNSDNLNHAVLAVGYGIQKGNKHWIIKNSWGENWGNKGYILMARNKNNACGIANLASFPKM

Selectivity Ki(hCatS)/Ki(hCatK) [1] | Ki [1] [nM] | Ki [2] [nM] | inhibition at 31.6 µM [3] [%] | SMILES
44.0 | 296 | 7 | 1 | Cc1ncccc1-c1ccc(C(=O)N[C@H](C(=O)N2C[C@H](Cl)[C@H]3OCC(=O)[C@H]32)C2CCCCC2)s1 [Example 83, N-((S)-2-((3aS,6S,6aS)-6-chloro-3-oxotetrahydro-2H-furo[3,2-b]pyrrol-4(5H)-yl)-1-cyclohexyl-2-oxoethyl)-5-(2-methylpyridin-3-yl)thiophene-2-carboxamide]
21.8 | 358 | 16 | 6 | Cc1ccnnc1-c1ccc(C(=O)N[C@H](C(=O)N2C[C@H](Cl)[C@H]3OCC(=O)[C@H]32)C2CCCCC2)s1 [Example 84, N-((S)-2-((3aS,6S,6aS)-6-chloro-3-oxotetrahydro-2H-furo[3,2-b]pyrrol-4(5H)-yl)-1-cyclohexyl-2-oxoethyl)-5-(4-methylpyridazin-3-yl)thiophene-2-carboxamide]
1.1 | 6 | 5 | 14 | CCc1cc(-c2ccc(C(=O)N[C@H](C(=O)N3C[C@H](Cl)[C@H]4OCC(=O)[C@H]43)C3CCCCC3)s2)cnn1 [Example 85, N-((S)-2-((3aS,6S,6aS)-6-chloro-3-oxotetrahydro-2H-furo[3,2-b]pyrrol-4(5H)-yl)-1-cyclohexyl-2-oxoethyl)-5-(6-ethylpyridazin-4-yl)thiophene-2-carboxamide]
16.7 | 24 | 1 | 25 | CCc1cc(-c2ccc(C(=O)N[C@H](C(=O)N3C[C@H](Cl)[C@H]4OCC(=O)[C@H]43)C3CCCCC3)s2)ccn1 [Example 86, N-((S)-2-((3aS,6S,6aS)-6-chloro-3-oxotetrahydro-2H-furo[3,2-b]pyrrol-4(5H)-yl)-1-cyclohexyl-2-oxoethyl)-5-(2-ethylpyridin-4-yl)thiophene-2-carboxamide]
16.2 | 59 | 4 | 14 | CCc1cc(-c2cnc(C(=O)N[C@H](C(=O)N3C[C@H](Cl)[C@H]4OCC(=O)[C@H]43)C3CCCCC3)s2)ccn1 [Example 87, N-((S)-2-((3aS,6S,6aS)-6-chloro-3-oxotetrahydro-2H-furo[3,2-b]pyrrol-4(5H)-yl)-1-cyclohexyl-2-oxoethyl)-5-(2-ethylpyridin-4-yl)thiazole-2-carboxamide]
18.6 | 335 | 18 | 0 | Cc1cc(-c2ccc(C(=O)N[C@H](C(=O)N3C[C@H](Cl)[C@H]4OCC(=O)[C@H]43)C3CCCCC3)s2)c(C)cn1 [Example 88, N-((S)-2-((3aS,6S,6aS)-6-chloro-3-oxotetrahydro-2H-furo[3,2-b]pyrrol-4(5H)-yl)-1-cyclohexyl-2-oxoethyl)-5-(2,5-dimethylpyridin-4-yl)thiophene-2-carboxamide]
0.7 | 13 | 18 | 12 | Cc1cc(-c2ccc(C(=O)N[C@H](C(=O)N3C[C@H](Cl)[C@H]4OCC(=O)[C@H]43)C3CCCCC3)s2)c(C)nn1 [Example 89, N-((S)-2-((3aS,6S,6aS)-6-chloro-3-oxotetrahydro-2H-furo[3,2-b]pyrrol-4(5H)-yl)-1-cyclohexyl-2-oxoethyl)-5-(3,6-dimethylpyridazin-4-yl)thiophene-2-carboxamide]
7.3 | 73 | 10 | 20 | Cc1cnncc1-c1ccc(C(=O)N[C@H](C(=O)N2C[C@H](Cl)[C@H]3OCC(=O)[C@H]32)C2CCCCC2)s1 [Example 90, N-((S)-2-((3aS,6S,6aS)-6-chloro-3-oxotetrahydro-2H-furo[3,2-b]pyrrol-4(5H)-yl)-1-cyclohexyl-2-oxoethyl)-5-(5-methylpyridazin-4-yl)thiophene-2-carboxamide]
